# Patent US20240217989A1, “Heteroaryl Fluoroalkenes As DGK Inhibitors” (Incyte Corporation, priority 2022, published 2024)
# What was measured:
# [1] = target: DGKζ (Homo sapiens, UniProt Q13574); assay: In vitro DGKζ inhibition assay (ADP-Glo); assay type: biochemical; conditions: His-tagged human recombinant enzyme; 0.4 nM DGKζ, 30 μM ATP, 20 μM DLG; 90 minute incubation; ADP-Glo luminescence
# Method: (§1) The DGKα and DGKζ biochemical reactions were performed using His-tagged human recombinant enzymes (Signal Chem, DGKα, #D21-10BH; DGKζ, #D30-10H)) and DLG (Dilauroyl-sn-glycerol) lipid substrate (Signal Chem, #D430-59). ADP-Glo assay was performed using ADP-Glo™ kinase Assay kit (Promega, #V9104). The reactions were carried out in assay buffer containing 40 mM Tris, pH 7.5, 0.1% CHAPS, 0.1% Prionex, 40 mM NaCl, 5 mM MgCl2, 1 mM CaCl2, and 1 mM DTT. DGKα reactions contained 0.1 nM DGKα, 50 μM ATP, and 20 μM DLG. And DGKζ reactions contained 0.4 nM DGKζ, 30 μM ATP, and 20 μM DLG. For compound inhibition studies, 40 nL test compound in DMSO was added to wells of white polystyrene plates in 384-well (Greiner, #784075) or 1536-well format (Greiner, #782075). Compounds were added with top concentration of 2 mM with 11 point, 3-fold dilution series. Enzyme solution (contains 2× DGK enzyme concentration in 1× assay buffer) was added to the plate in 2 μL/well volume, followed by 2 μL/well of substrate solution (contains 2× concentration of ATP and DLG substrate in 1× assay buffer). Plates were then centrifuged for 1 min at 1200 RPM and sealed or lidded. For 4 μL reaction volume, test compounds were therefore diluted 100× to final top concentration of 20 μM. After 90 minute incubation, reactions were quenched by addition of 2 μL/well Promega ADP-Glo Reagent, followed by centrifugation and lidding. After 60 min incubation, 2 μL/well Promega Kinase Detection Reagent was added, plates centrifuged, and incubated for 30 min. Plates were then read using Luminescence method on BMG PHERAstar FSX plate reader. Percent inhibition was calculated and IC50s were determined using 4-parameter fit in Genedata Screener. Labcyte Echo acoustic dispenser was used for compound addition, and Formulatrix Tempest liquid handler was used for all reagent dispenses.
# [2] = target: T1, DGKα (Homo sapiens, UniProt P23743); assay: In vitro DGKα inhibition assay (ADP-Glo); assay type: biochemical; conditions: His-tagged human recombinant enzyme; 0.1 nM DGKα, 50 μM ATP, 20 μM DLG; 90 minute incubation; ADP-Glo luminescence
# T1 construct: His; purchased Signal Chem D21-10BH
# Method: as §1
# T1 sequence (P23743 whole entry): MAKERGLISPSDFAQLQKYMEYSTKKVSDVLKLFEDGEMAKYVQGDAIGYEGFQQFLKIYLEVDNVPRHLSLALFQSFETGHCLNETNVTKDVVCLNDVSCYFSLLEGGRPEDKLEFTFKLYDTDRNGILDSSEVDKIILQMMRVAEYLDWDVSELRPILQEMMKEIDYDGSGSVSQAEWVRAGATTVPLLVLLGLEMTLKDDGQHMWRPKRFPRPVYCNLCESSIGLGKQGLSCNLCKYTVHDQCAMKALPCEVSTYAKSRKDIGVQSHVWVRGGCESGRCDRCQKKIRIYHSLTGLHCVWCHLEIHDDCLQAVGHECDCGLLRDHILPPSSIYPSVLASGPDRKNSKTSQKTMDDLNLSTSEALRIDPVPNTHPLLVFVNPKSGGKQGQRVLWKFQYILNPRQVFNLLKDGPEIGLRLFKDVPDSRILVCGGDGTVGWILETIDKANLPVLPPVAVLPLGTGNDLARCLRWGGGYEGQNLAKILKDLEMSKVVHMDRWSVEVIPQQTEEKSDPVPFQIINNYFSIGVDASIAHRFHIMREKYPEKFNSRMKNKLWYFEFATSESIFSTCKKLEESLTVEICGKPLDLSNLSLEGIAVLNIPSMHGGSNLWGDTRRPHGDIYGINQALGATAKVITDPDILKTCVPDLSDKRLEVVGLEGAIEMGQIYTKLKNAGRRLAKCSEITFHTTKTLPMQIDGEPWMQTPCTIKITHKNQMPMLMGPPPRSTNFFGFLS
# Sequence of DGKζ (Q13574 whole entry): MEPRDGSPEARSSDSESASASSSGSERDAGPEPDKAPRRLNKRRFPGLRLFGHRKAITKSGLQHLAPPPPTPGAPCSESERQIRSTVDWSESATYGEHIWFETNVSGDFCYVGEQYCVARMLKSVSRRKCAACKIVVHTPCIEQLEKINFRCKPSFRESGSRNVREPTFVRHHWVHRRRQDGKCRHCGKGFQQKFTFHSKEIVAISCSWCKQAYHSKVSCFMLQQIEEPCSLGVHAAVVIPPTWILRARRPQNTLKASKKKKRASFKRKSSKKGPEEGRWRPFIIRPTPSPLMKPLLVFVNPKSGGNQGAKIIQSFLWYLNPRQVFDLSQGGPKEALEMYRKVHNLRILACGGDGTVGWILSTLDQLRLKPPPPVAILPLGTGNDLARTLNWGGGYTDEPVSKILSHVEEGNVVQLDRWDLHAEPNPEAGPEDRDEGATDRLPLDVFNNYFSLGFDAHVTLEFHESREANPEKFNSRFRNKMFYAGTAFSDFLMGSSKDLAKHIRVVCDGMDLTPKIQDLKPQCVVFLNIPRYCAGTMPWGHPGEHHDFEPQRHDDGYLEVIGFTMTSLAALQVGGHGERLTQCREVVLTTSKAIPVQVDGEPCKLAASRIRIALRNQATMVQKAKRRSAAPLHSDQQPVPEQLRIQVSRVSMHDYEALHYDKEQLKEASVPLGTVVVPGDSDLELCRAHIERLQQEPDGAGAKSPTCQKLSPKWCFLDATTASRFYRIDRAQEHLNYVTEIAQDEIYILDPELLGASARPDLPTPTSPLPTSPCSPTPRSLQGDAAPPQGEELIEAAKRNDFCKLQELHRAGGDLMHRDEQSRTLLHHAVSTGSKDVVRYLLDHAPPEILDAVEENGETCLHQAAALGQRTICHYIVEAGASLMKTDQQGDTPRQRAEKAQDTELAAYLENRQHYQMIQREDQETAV
SMILES,IC50 [1] [nM],IC50 [2] [nM]
"F/C(=C\c1ccc(Oc2ccccc2F)c(C(F)(F)F)c1N1CCOC2(CCN(CC3CC3)CC2)C1)c1cncc(-c2ccnnc2)n1 [Example 36, (Z)-9-(Cyclopropylmethyl)-4-(6-(2-fluoro-2-(6-(pyridazin-4-yl)pyrazin-2-yl)vinyl)-3-(2-fluorophenoxy)-2-(trifluoromethyl)phenyl)-1-oxa-4,9-diazaspiro[5.5]undecane]",≤ 20,20 to 200
"NC[C@@H]1CCCN(c2c(/C=C(\F)c3cc4nccnc4c(N4CC(F)(F)C4)n3)ccc(Oc3ccccc3F)c2C(F)(F)F)C1 [Example 1, (S,Z)-(1-(6-(2-(5-(3,3-Difluoroazetidin-1-yl)pyrido[3,4-b]pyrazin-7-yl)-2-fluorovinyl)-3-(2-fluorophenoxy)-2-(trifluoromethyl)phenyl)piperidin-3-yl)methanamine]",20 to 200,20 to 200
"CCN1CCC2(CCCN(c3c(/C=C(\F)c4nccc(-c5ccnnc5)n4)ccc(OC4CC5CC(C5)C4)c3C(F)(F)F)C2)CC1 (stereo not shown) [Example 54, (Z)-2-(3-(Bicyclo[3.1.1]heptan-3-yloxy)-6-(2-fluoro-2-(4-(pyridazin-4-yl)pyrimidin-2-yl)vinyl)-2-(trifluoromethyl)phenyl)-9-ethyl-2,9-diazaspiro[5.5]undecane]",≤ 20,≤ 20
"F/C(=C\c1ccc(Oc2ccccc2)c(C(F)(F)F)c1N1CCCC2(CCN(CC3CC3)CC2)C1)c1nccc(-c2ccnnc2)n1 [Example 28, (Z)-9-(Cyclopropylmethyl)-2-(6-(2-fluoro-2-(4-(pyridazin-4-yl)pyrimidin-2-yl)vinyl)-3-phenoxy-2-(trifluoromethyl)phenyl)-2,9-diazaspiro[5.5]undecane]",≤ 20,≤ 20
"COCCN1CCC2(CCCN(c3c(/C=C(\F)c4nccc(-c5ccnnc5)n4)ccc(Oc4ccccc4)c3C(F)(F)F)C2)CC1 [Example 31, (Z)-2-(6-(2-Fluoro-2-(4-(pyridazin-4-yl)pyrimidin-2-yl)vinyl)-3-phenoxy-2-(trifluoromethyl)phenyl)-9-(2-methoxyethyl)-2,9-diazaspiro[5.5]undecane]",≤ 20,≤ 20
"F/C(=C\c1ccc(Oc2cccc(F)c2F)c(C(F)(F)F)c1N1CCCC2(CCN(CC3CC3)CC2)C1)c1cncc(-c2ccns2)n1 [Example 49, (Z)-5-(6-(2-(2-(9-(Cyclopropylmethyl)-2,9-diazaspiro[5.5]undecan-2-yl)-4-(2,3-difluorophenoxy)-3-(trifluoromethyl)phenyl)-1-fluorovinyl)pyrazin-2-yl)isothiazole]",≤ 20,≤ 20
"CCN1CCC2(CC1)CN(c1c(/C=C(\F)c3nccc(-c4ccnnc4)n3)ccc(Oc3ccccc3)c1C(F)(F)F)CCO2 [Example 24, (Z)-9-Ethyl-4-(6-(2-fluoro-2-(4-(pyridazin-4-yl)pyrimidin-2-yl)vinyl)-3-phenoxy-2-(trifluoromethyl)phenyl)-1-oxa-4,9-diazaspiro[5.5]undecane]",≤ 20,≤ 20
"COc1cc(F)ccc1Oc1ccc(/C=C(\F)c2nncc(N3CCC(F)(F)C3)n2)c(N2CCC[C@@H](CN)C2)c1Cl [Example 8, (S,Z)-(1-(2-Chloro-6-(2-(5-(3,3-difluoropyrrolidin-1-yl)-1,2,4-triazin-3-yl)-2-fluorovinyl)-3-(4-fluoro-2-methoxyphenoxy)phenyl)piperidin-3-yl)methanamine]",≤ 20,≤ 20
"F/C(=C\c1ccc(Oc2ccccc2)c(C(F)(F)F)c1N1CCCC2(CCN(CC3CC3)CC2)C1)c1cncc(N2CC(F)(F)C2)n1 [Example 15, (Z)-9-(Cyclopropylmethyl)-2-(6-(2-(6-(3,3-difluoroazetidin-1-yl)pyrazin-2-yl)-2-fluorovinyl)-3-phenoxy-2-(trifluoromethyl)phenyl)-2,9-diazaspiro[5.5]undecane]",≤ 20,≤ 20
"COc1cc(F)ccc1Oc1ccc(/C=C(\F)c2ccnc(-c3ccnnc3)n2)c(N2CCC[C@@H](CN)C2)c1Cl [Example 7, (S,Z)-(1-(2-Chloro-6-(2-fluoro-2-(2-(pyridazin-4-yl)pyrimidin-4-yl)vinyl)-3-(4-fluoro-2-methoxyphenoxy)phenyl)piperidin-3-yl)methanamine]",≤ 20,≤ 20
"CCN1CCC2(CCCN(c3c(/C=C(\F)c4nccc(-c5ccnnc5)n4)ccc(Oc4ncccc4F)c3C(F)(F)F)C2)CC1 [Example 32, (Z)-9-Ethyl-2-(6-(2-fluoro-2-(4-(pyridazin-4-yl)pyrimidin-2-yl)vinyl)-3-((3-fluoropyridin-2-yl)oxy)-2-(trifluoromethyl)phenyl)-2,9-diazaspiro[5.5]undecane]",≤ 20,≤ 20
"CCN1CCC2(CCCN(c3c(/C=C(\F)c4nccc(-c5ccnnc5)n4)ccc(OC4CCCC4)c3C(F)(F)F)C2)CC1 [Example 53, (Z)-2-(3-(Cyclopentyloxy)-6-(2-fluoro-2-(4-(pyridazin-4-yl)pyrimidin-2-yl)vinyl)-2-(trifluoromethyl)phenyl)-9-ethyl-2,9-diazaspiro[5.5]undecane]",≤ 20,≤ 20
"CCN1CCC2(CCCN(c3c(/C=C(\F)c4cncc(N5CC(F)(F)C5)n4)ccc(Oc4ccccc4)c3C(F)(F)F)C2)CC1 [Example 16, (Z)-2-(6-(2-(6-(3,3-Difluoroazetidin-1-yl)pyrazin-2-yl)-2-fluorovinyl)-3-phenoxy-2-(trifluoromethyl)phenyl)-9-ethyl-2,9-diazaspiro[5.5]undecane]",≤ 20,20 to 200
"F/C(=C\c1ccc(Oc2ccccc2)c(C(F)(F)F)c1N1CCOC2(CCN(CC3CC3)CC2)C1)c1nccc(-c2ccnnc2)n1 [Example 23, (Z)-9-(Cyclopropylmethyl)-4-(6-(2-fluoro-2-(4-(pyridazin-4-yl)pyrimidin-2-yl)vinyl)-3-phenoxy-2-(trifluoromethyl)phenyl)-1-oxa-4,9-diazaspiro[5.5]undecane]",≤ 20,20 to 200
"CN(CCCN)c1c(/C=C(\F)c2cccc(-c3ccnnc3)n2)ccc(Oc2ccccc2)c1C(F)(F)F [Example 5, (Z)-N1-(6-(2-Fluoro-2-(6-(pyridazin-4-yl)pyridin-2-yl)vinyl)-3-phenoxy-2-(trifluoromethyl)phenyl)-N1-methylpropane-1,3-diamine]",20 to 200,≤ 20
"COCCN1CCC2(CC1)CN(c1c(/C=C(\F)c3cncc(-c4ccnnc4)n3)ccc(Oc3ccccc3)c1C(F)(F)F)CCO2 [Example 11, (Z)-4-(6-(2-Fluoro-2-(6-(pyridazin-4-yl)pyrazin-2-yl)vinyl)-3-phenoxy-2-(trifluoromethyl)phenyl)-9-(2-methoxyethyl)-1-oxa-4,9-diazaspiro[5.5]undecane]",≤ 20,20 to 200
"F/C(=C\c1ccc(OC2CCCCC2)c(C(F)(F)F)c1N1CCCC2(CCN(CC3CC3)CC2)C1)c1cncc(-c2ccnnc2)n1 [Example 48, (Z)-2-(3-(Cyclohexyloxy)-6-(2-fluoro-2-(6-(pyridazin-4-yl)pyrazin-2-yl)vinyl)-2-(trifluoromethyl)phenyl)-9-(cyclopropylmethyl)-2,9-diazaspiro[5.5]undecane]",≤ 20,≤ 20
"CCN1CCC2(CC1)CN(c1c(/C=C(\F)c3cncc(-c4ccnnc4)n3)ccc(Oc3cccc(F)c3)c1C(F)(F)F)CCO2 [Example 34, (Z)-9-Ethyl-4-(6-(2-fluoro-2-(6-(pyridazin-4-yl)pyrazin-2-yl)vinyl)-3-(3-fluorophenoxy)-2-(trifluoromethyl)phenyl)-1-oxa-4,9-diazaspiro[5.5]undecane]",≤ 20,≤ 20
"F/C(=C\c1ccc(Oc2ccccc2)c(C(F)(F)F)c1N1CCCC2(CCN(C3CCC3)CC2)C1)c1nccc(-c2ccnnc2)n1 [Example 30, (Z)-9-Cyclobutyl-2-(6-(2-fluoro-2-(4-(pyridazin-4-yl)pyrimidin-2-yl)vinyl)-3-phenoxy-2-(trifluoromethyl)phenyl)-2,9-diazaspiro[5.5]undecane]",≤ 20,≤ 20
"F/C(=C\c1ccc(Oc2ccccc2F)c(C(F)(F)F)c1N1CCOC2(CCN(CC3CC3)CC2)C1)c1nccc(-c2ccnnc2)n1 [Example 42, (Z)-9-(Cyclopropylmethyl)-4-(6-(2-fluoro-2-(4-(pyridazin-4-yl)pyrimidin-2-yl)vinyl)-3-(2-fluorophenoxy)-2-(trifluoromethyl)phenyl)-1-oxa-4,9-diazaspiro[5.5]undecane]",≤ 20,≤ 20
